± gives the expanded uncertainty stated by the source.
What was measured:
[1] = refractive index (Na D-line) (dimensionless); mn = molality of the nth substance listed, in mol/kg; conditions: 101.3 kPa, Liquid, Standard Abbe refractometry
[2] = mn = molality of the nth substance listed, in mol/kg; conditions: 101.3 kPa, Liquid; for viscosity: Capillary tube (Ostwald / Ubbelohde) method; for mass density: Vibrating tube method

O=C([O-])[C@H](O)[C@@H](O)[C@H](O[C@@H]1O[C@H](CO)[C@H](O)[C@H](O)[C@H]1O)[C@H](O)CO.[Na+] [sodium lactobionate] + O
Conditions	mass density, [2] [kg/m3]	refractive index, [1]	viscosity, [2] [mPa·s]
288.15 K, m1 = 0.0251	–	–	1.157 ± 0.015
288.15 K, m1 = 0.0502	1010.5 ± 0.9	–	1.177 ± 0.016
288.15 K, m1 = 0.0753	1015.2 ± 0.9	–	1.211 ± 0.016
288.15 K, m1 = 0.1	1020.1 ± 0.9	–	1.257 ± 0.017
288.15 K, m1 = 0.126	1024.5 ± 0.9	–	1.286 ± 0.017
288.15 K, m1 = 0.151	1029.1 ± 0.9	–	1.332 ± 0.017
288.15 K, m1 = 0.176	1034.1 ± 0.9	–	1.374 ± 0.018
288.15 K, m1 = 0.201	1039 ± 0.9	–	1.432 ± 0.019
293.15 K, m1 = 0.0251	–	1.3331 ± 0.0004	1.018 ± 0.013
293.15 K, m1 = 0.0502	1009.1 ± 0.9	1.3344 ± 0.0004	1.036 ± 0.014
293.15 K, m1 = 0.0753	1013.9 ± 0.9	1.336 ± 0.0004	1.066 ± 0.014
293.15 K, m1 = 0.1	1018.9 ± 0.9	1.3376 ± 0.0004	1.106 ± 0.015
293.15 K, m1 = 0.126	1023.3 ± 0.9	1.3392 ± 0.0004	1.132 ± 0.015
293.15 K, m1 = 0.151	1028.1 ± 0.9	1.3406 ± 0.0004	1.171 ± 0.015
293.15 K, m1 = 0.176	1033 ± 0.9	1.3421 ± 0.0004	1.208 ± 0.016
293.15 K, m1 = 0.201	1037.7 ± 0.9	1.3435 ± 0.0004	1.26 ± 0.017
298.15 K, m1 = 0.0251	–	1.3326 ± 0.0004	0.9041 ± 0.012
298.15 K, m1 = 0.0502	1007.6 ± 0.9	1.3339 ± 0.0004	0.9201 ± 0.012
298.15 K, m1 = 0.0753	1012.6 ± 0.9	1.3354 ± 0.0004	0.9457 ± 0.013
298.15 K, m1 = 0.1	1017.7 ± 0.9	1.337 ± 0.0004	0.9824 ± 0.013
298.15 K, m1 = 0.126	1022.1 ± 0.9	1.3385 ± 0.0004	1.006 ± 0.013
298.15 K, m1 = 0.151	1026.9 ± 0.9	1.34 ± 0.0004	1.041 ± 0.014
298.15 K, m1 = 0.176	1031.8 ± 0.9	1.3415 ± 0.0004	1.074 ± 0.014
298.15 K, m1 = 0.201	1036.4 ± 0.9	1.343 ± 0.0004	1.119 ± 0.015
303.15 K, m1 = 0.0251	–	1.3321 ± 0.0004	0.8091 ± 0.011
303.15 K, m1 = 0.0502	1006.2 ± 0.9	1.3334 ± 0.0004	0.8233 ± 0.011
303.15 K, m1 = 0.0753	1011.2 ± 0.9	1.3348 ± 0.0004	0.8464 ± 0.011
303.15 K, m1 = 0.1	1016.4 ± 0.9	1.3364 ± 0.0004	0.8796 ± 0.012
303.15 K, m1 = 0.126	1020.8 ± 0.9	1.3378 ± 0.0004	0.9001 ± 0.012
303.15 K, m1 = 0.151	1025.5 ± 0.9	1.3393 ± 0.0004	0.9321 ± 0.012
303.15 K, m1 = 0.176	1030.3 ± 0.9	1.3409 ± 0.0004	0.9614 ± 0.013
303.15 K, m1 = 0.201	1035.1 ± 0.9	1.3425 ± 0.0004	1.002 ± 0.013
308.15 K, m1 = 0.0251	–	1.3316 ± 0.0004	0.7289 ± 0.0096
308.15 K, m1 = 0.0502	1004.5 ± 0.9	1.3328 ± 0.0004	0.7415 ± 0.0098
308.15 K, m1 = 0.0753	1009.7 ± 0.9	1.3342 ± 0.0004	0.7623 ± 0.01
308.15 K, m1 = 0.1	1014.9 ± 0.9	1.3357 ± 0.0004	0.7921 ± 0.01
308.15 K, m1 = 0.126	1019.4 ± 0.9	1.3371 ± 0.0004	0.8111 ± 0.011
308.15 K, m1 = 0.151	1023.9 ± 0.9	1.3387 ± 0.0004	0.8399 ± 0.011
308.15 K, m1 = 0.176	1028.8 ± 0.9	1.3403 ± 0.0004	0.8655 ± 0.011
308.15 K, m1 = 0.201	1033.5 ± 0.9	1.342 ± 0.0004	0.9029 ± 0.012
313.15 K, m1 = 0.0251	–	1.331 ± 0.0004	0.6612 ± 0.0087
313.15 K, m1 = 0.0502	1003.1 ± 0.9	1.3322 ± 0.0004	0.6729 ± 0.0089
313.15 K, m1 = 0.0753	1008.1 ± 0.9	1.3335 ± 0.0004	0.692 ± 0.0092
313.15 K, m1 = 0.1	1013.3 ± 0.9	1.335 ± 0.0004	0.7187 ± 0.0096
313.15 K, m1 = 0.126	1017.8 ± 0.9	1.3364 ± 0.0004	0.7357 ± 0.0098
313.15 K, m1 = 0.151	1022.1 ± 0.9	1.338 ± 0.0004	0.7622 ± 0.01
313.15 K, m1 = 0.176	1027.2 ± 0.9	1.3397 ± 0.0004	0.7851 ± 0.01
313.15 K, m1 = 0.201	1031.8 ± 0.9	1.3415 ± 0.0004	0.8191 ± 0.011
318.15 K, m1 = 0.0251	–	1.3304 ± 0.0004	0.6029 ± 0.008
318.15 K, m1 = 0.0502	1001.6 ± 0.9	1.3316 ± 0.0004	0.6136 ± 0.0082
318.15 K, m1 = 0.0753	1006.5 ± 0.9	1.3329 ± 0.0004	0.6313 ± 0.0085
318.15 K, m1 = 0.1	1011.5 ± 0.9	1.3343 ± 0.0004	0.6556 ± 0.0087
318.15 K, m1 = 0.126	1015.9 ± 0.9	1.3357 ± 0.0004	0.6711 ± 0.0089
318.15 K, m1 = 0.151	1020.5 ± 0.9	1.3373 ± 0.0004	0.6951 ± 0.0093
318.15 K, m1 = 0.176	1025.3 ± 0.9	1.3391 ± 0.0004	0.7157 ± 0.0096
318.15 K, m1 = 0.201	1030 ± 10	1.3409 ± 0.0004	0.7469 ± 0.01
323.15 K, m1 = 0.0251	–	1.3297 ± 0.0004	0.5523 ± 0.0073
323.15 K, m1 = 0.0502	999.8 ± 0.9	1.3309 ± 0.0004	0.5625 ± 0.0074
323.15 K, m1 = 0.0753	1004.7 ± 0.9	1.3322 ± 0.0004	0.5789 ± 0.0078
323.15 K, m1 = 0.1	1009.5 ± 0.9	1.3336 ± 0.0004	0.6009 ± 0.008
323.15 K, m1 = 0.126	1013.9 ± 0.9	1.3349 ± 0.0004	0.6151 ± 0.0082
323.15 K, m1 = 0.151	1018.4 ± 0.9	1.3365 ± 0.0004	0.6372 ± 0.0085
323.15 K, m1 = 0.176	1023.2 ± 0.9	1.3384 ± 0.0004	0.6565 ± 0.009
323.15 K, m1 = 0.201	1028 ± 1	1.3404 ± 0.0004	0.6849 ± 0.0093
